According to US9365576B2, “Pyrrolopyrrolidinone compounds” (Novartis AG, priority 2012, dated 2016):

molecular target: human MDM2 protein (amino acids 2-188) (Homo sapiens (Human), UniProt Q00987); assay: TR-FRET assay, p53-MDM2 Assay 2 (modified); format: binding; settings: TR-FRET; 0.1 nM MDM2, 0.1 nM Europium labeled streptavidin, Tecan genios Pro reader; read-out: IC50 p53-MDM2 Assay 2
Protocol: The inhibition of p53-MDM2 and p53-MDM4 interactions is measured by time resolved fluorescence energy transfer (TR-FRET). Fluorescence energy transfer (or Foerster resonance energy transfer) describes an energy transfer between donor and acceptor fluorescent molecules. For this assay, human MDM2 protein (amino acids 2-188) and human MDM4 protein (amino acids 2-185), tagged with a C-terminal biotin moiety, are used in combination with a Europium labeled streptavidin (Perkin Elmer, Inc., Waltham, Mass., USA) serving as the donor fluorophore. The p53 derived, Cy5 labeled peptide Cy5-[…] (p53 aa18-26) is the energy acceptor. Upon excitation of the donor molecule at 340 nm, binding interaction between MDM2 or MDM4 and the p53 peptide induces energy transfer and enhanced response at the acceptor emission wavelength at 665 nm. […] The ratiometric FRET assay readout is calculated from the raw data of the two distinct fluorescence signals measured in time resolved mode (fluorescence 665 nm/fluorescence 620 nm×1000).
After addition of 1.25 nM MDM2-biotinylated or 2.5 nM MDM4-biotinylated (internal preparations), and 0.625 nM Europium labeled streptavidin (Perkin Elmer), the solution is pre-incubated for 15 minutes at room temperature, then 10 nM Cy5-p53 peptide (internal preparation) is added before an incubation at room temperature for 15 minutes prior to reading the plate. For measurement of samples, a Victor II microplate reader (Perkin Elmer) is used with the following settings: Excitation 340 nm, Emission Donor 620 nm and Emission Acceptor 665 nm. IC50 values are calculated by curve fitting using XLfit. If not specified, reagents are purchased from Sigma-Aldrich Chemie GmBH, Buchs, Switzerland.

Chain of human MDM2 protein (amino acids 2-188) (Q00987 2-188): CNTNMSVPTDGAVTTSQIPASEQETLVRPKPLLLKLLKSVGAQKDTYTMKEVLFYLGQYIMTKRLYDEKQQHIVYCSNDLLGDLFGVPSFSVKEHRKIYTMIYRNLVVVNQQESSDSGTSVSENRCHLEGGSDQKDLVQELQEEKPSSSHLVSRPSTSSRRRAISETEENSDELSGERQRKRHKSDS

Compound | IC50 [pM]
CCn1c(-c2cnc(OC)nc2OC)cc2c1C(c1ccc(Cl)cc1)N(c1cc(Cl)ccc1C)C2=O (centres unmarked) [Example 45, 5-(5-Chloro-2-methyl-phenyl)-6-(4-chloro-phenyl)-2-(2,4-dimethoxy-pyrimidin-5-yl)-1-ethyl-5,6-dihydro-1H-pyrrolo[3,4-b]pyrrol-4-one] | 87600
COc1ccccc1-c1cc2c(n1C(C)C)C(c1ccc(Cl)cc1)N(c1cc(Cl)c(=O)n(C)c1)C2=O (centres unmarked) [Example 46, 5-(5-Chloro-1-methyl-6-oxo-1,6-dihydro-pyridin-3-yl)-6-(4-chloro-phenyl)-1-isopropyl-2-(2-methoxy-phenyl)-5,6-dihydro-1H-pyrrolo[3,4-b]pyrrol-4-one] | 203
COc1ccc(C(=O)N2CCOCC2)cc1-c1cc2c(n1C(C)C)C(c1ccc(Cl)cc1)N(c1cc(Cl)c(=O)n(C)c1)C2=O (centres unmarked) [Example 47, 5-(5-Chloro-1-methyl-6-oxo-1,6-dihydro-pyridin-3-yl)-6-(4-chloro-phenyl)-1-isopropyl-2-[2-methoxy-5-(morpholine-4-carbonyl)-phenyl]-5,6-dihydro-1H-pyrrolo[3,4-B]pyrrol-4-one] | 150
COc1ncc(-c2cc3c(n2C(C)C)C(c2ccc(Cl)cc2)N(c2cc(Cl)c(=O)n(C)c2)C3=O)c(OC)n1 (centres unmarked) [Example 48, 5-(5-Chloro-1-methyl-6-oxo-1,6-dihydro-pyridin-3-yl)-6-(4-chloro-phenyl)-2-(2,4-dimethoxy-pyrimidin-5-yl)-1-isopropyl-5,6-dihydro-1H-pyrrolo[3,4-b]pyrrol-4-one] | 188
CNC(=O)c1ccc(OC)c(-c2cc3c(n2C(C)C)C(c2ccc(Cl)cc2)N(c2cc(Cl)c(=O)n(C)c2)C3=O)c1 (centres unmarked) [Example 49, 3-[5-(5-Chloro-1-methyl-6-oxo-1,6-dihydro-pyridin-3-yl)-6-(4-chloro-phenyl)-1-isopropyl-4-oxo-1,4,5,6-tetrahydro-pyrrolo[3,4-b]pyrrol-2-yl]-4-methoxy-N-methyl-benzamide] | 137
COc1ccc(C(=O)O)cc1-c1cc2c(n1C(C)C)C(c1ccc(Cl)cc1)N(c1cc(Cl)c(=O)n(C)c1)C2=O (stereo not drawn) [Example 50, 3-[5-(5-Chloro-1-methyl-6-oxo-1,6-dihydro-pyridin-3-yl)-6-(4-chloro-phenyl)-1-isopropyl-4-oxo-1,4,5,6-tetrahydro-pyrrolo[3,4S-b]pyrrol-2-yl]-4-methoxy-benzoic acid] | 234
COc1nc(N)ncc1-c1cc2c(n1C(C)C)C(c1ccc(Cl)cc1)N(c1cc(Cl)c(=O)n(C)c1)C2=O (centres unmarked) [Example 51, 2-(2-Amino-4-methoxy-pyrimidin-5-yl)-5-(5-chloro-1-methyl-6-oxo-1,6-dihydro-pyridin-3-yl)-6-(4-chloro-phenyl)-1-isopropyl-5,6-dihydro-1H-pyrrolo[3,4-b]pyrrol-4-one] | 461
COc1nc(N(C)C)ncc1-c1cc2c(n1C(C)C)C(c1ccc(Cl)cc1)N(c1cc(Cl)c(=O)n(C)c1)C2=O (centres unmarked) [Example 52, 5-(5-Chloro-1-methyl-6-oxo-1,6-dihydro-pyridin-3-yl)-6-(4-chloro-phenyl)-2-(2-dimethylamino-4-methoxy-pyrimidin-5-yl)-1-isopropyl-5,6-dihydro-1H-pyrrolo[3,4-b]pyrrol-4-one] | 137
CNC(=O)c1ccc(OC)c(-c2cc3c(n2C(C)C)C(c2ccc(Cl)cc2)N(c2ccc(F)c(Cl)c2)C3=O)c1 (centres unmarked) [Example 53, 3-[5-(3-Chloro-4-fluoro-phenyl)-6-(4-chloro-phenyl)-1-isopropyl-4-oxo-1,4,5,6-tetrahydro-pyrrolo[3,4-b]pyrrol-2-yl]-4-methoxy-N-methyl-benzamide] | 323
COc1ncc(-c2cc3c(n2C(C)C)C(c2ccc(Cl)cc2)N(c2ccc(F)c(Cl)c2)C3=O)c(OC)n1 (centres unmarked) [Example 54, 5-(3-Chloro-4-fluoro-phenyl)-6-(4-chloro-phenyl)-2-(2,4-dimethoxy-pyrimidin-5-yl)-1-isopropyl-5,6-dihydro-1H-pyrrolo[3,4-b]pyrrol-4-one] | 267
COc1ccc(C(=O)N2CCOCC2)cc1-c1cc2c(n1C(C)C)C(c1ccc(Cl)cc1)N(c1ccc(F)c(Cl)c1)C2=O (centres unmarked) [Example 55, 5-(3-Chloro-4-fluoro-phenyl)-6-(4-chloro-phenyl)-1-isopropyl-2-[2-methoxy-5-(morpholine-4-carbonyl)-phenyl]-5,6-dihydro-1H-pyrrolo[3,4-b]pyrrol-4-one] | 287
COc1ccc(C(=O)O)cc1-c1cc2c(n1C(C)C)C(c1ccc(Cl)cc1)N(c1ccc(F)c(Cl)c1)C2=O (centres unmarked) [Example 56, 3-[5-(3-Chloro-4-fluoro-phenyl)-6-(4-chloro-phenyl)-1-isopropyl-4-oxo-1,4,5,6-tetrahydro-pyrrolo[3,4-b]pyrrol-2-yl]-4-methoxy-benzoic acid] | 351
COc1nc(N(C)C)ncc1-c1cc2c(n1C(C)C)C(c1ccc(Cl)cc1)N(c1ccc(F)c(Cl)c1)C2=O (centres unmarked) [Example 58, 5-(3-Chloro-4-fluoro-phenyl)-6-(4-chloro-phenyl)-2-(2-dimethylamino-4-methoxy-pyrimidin-5-yl)-1-isopropyl-5,6-dihydro-1H-pyrrolo[3,4-b]pyrrol-4-one] | 458
COc1ccccc1-c1c(C#N)c2c(n1C(C)C)C(c1ccc(Cl)cc1)N(c1cc(Cl)ccc1C)C2=O (centres unmarked) [Example 59, 5-(5-Chloro-2-methyl-phenyl)-6-(4-chloro-phenyl)-1-isopropyl-2-(2-methoxy-phenyl)-4-oxo-1,4,5,6-tetrahydro-pyrrolo[3,4-b]pyrrole-3-carbonitrile] | 163
COc1ccc(CC(=O)O)cc1-c1cc2c(n1C(C)C)C(c1ccc(Cl)cc1)N(c1cc(Cl)ccc1C)C2=O (centres unmarked) [Example 60, {3-[5-(5-Chloro-2-methyl-phenyl)-6-(4-chloro-phenyl)-1-isopropyl-4-oxo-1,4,5,6-tetrahydro-pyrrolo[3,4-b]pyrrol-2-yl]-4-methoxy-phenyl}-acetic acid] | 155
COc1ccc(C(N)=O)cc1-c1cc2c(n1C(C)C)C(c1ccc(Cl)cc1)N(c1cc(Cl)ccc1C)C2=O (centres unmarked) [Example 61, 3-[5-(5-Chloro-2-methyl-phenyl)-6-(4-chloro-phenyl)-1-isopropyl-4-oxo-1,4,5,6-tetrahydro-pyrrolo[3,4-b]pyrrol-2-yl]-4-methoxy-benzamide] | 104
CNS(=O)(=O)c1ccc(OC)c(-c2cc3c(n2C(C)C)C(c2ccc(Cl)cc2)N(c2cc(Cl)ccc2C)C3=O)c1 (centres unmarked) [Example 62, 3-[5-(5-Chloro-2-methyl-phenyl)-6-(4-chloro-phenyl)-1-isopropyl-4-oxo-1,4,5,6-tetrahydro-pyrrolo[3,4-b]pyrrol-2-yl]-4-methoxy-N-methyl-benzenesulfonamide] | 169
COc1ccccc1-c1cc2c(n1C(C)C)C(c1ccc(Cl)cc1)N([C@H]1CC[C@H](O)CC1)C2=O (stereo partly drawn) [Example 63, 6-(4-Chloro-phenyl)-5-(trans-4-hydroxy-cyclohexyl)-1-isopropyl-2-(2-methoxy-phenyl)-5,6-dihydro-1H-pyrrolo[3,4-b]pyrrol-4-one] | 8130
CNC(=O)c1ccc(OC)c(-c2cc3c(n2C(C)C)C(c2ccc(Cl)cc2)N([C@H]2CC[C@H](O)CC2)C3=O)c1 (stereo partly drawn) [Example 64, 3-[6-(4-Chloro-phenyl)-5-(trans-4-hydroxy-cyclohexyl)-1-isopropyl-4-oxo-1,4,5,6-tetrahydro-pyrrolo[3,4-b]pyrrol-2-yl]-4-methoxy-N-methyl-benzamide] | 1000
COc1ncc(-c2cc3c(n2C(C)C)C(c2ccc(Cl)cc2)N([C@H]2CC[C@H](O)CC2)C3=O)c(OC)n1 (stereo partly drawn) [Example 66, 6-(4-Chloro-phenyl)-2-(2,4-dimethoxy-pyrimidin-5-yl)-5-(trans-4-hydroxy-cyclohexyl)-1-isopropyl-5,6-dihydro-1H-pyrrolo[3,4-b]pyrrol-4-one] | 1380
COc1ccc(C#N)cc1-c1cc2c(n1C(C)C)C(c1ccc(Cl)cc1)N([C@H]1CC[C@H](O)CC1)C2=O (stereo partly drawn) [Example 67, 3-[6-(4-Chloro-phenyl)-5-(trans-4-hydroxy-cyclohexyl)-1-isopropyl-4-oxo-1,4,5,6-tetrahydro-pyrrolo[3,4-b]pyrrol-2-yl]-4-methoxy-benzonitrile] | 2490
COc1nc(N(C)C)ncc1-c1cc2c(n1C(C)C)C(c1ccc(Cl)cc1)N([C@H]1CC[C@H](O)CC1)C2=O (stereo partly drawn) [Example 69, 6-(4-Chloro-phenyl)-2-(2-dimethylamino-4-methoxy-pyrimidin-5-yl)-5-(trans-4-hydroxy-cyclohexyl)-1-isopropyl-5,6-dihydro-1H-pyrrolo[3,4-b]pyrrol-4-one] | 777
COc1ncc(-c2cc3c(n2C(C)C)C(c2ccc(Cl)cc2)N(c2cc(Cl)cn(C)c2=O)C3=O)c(OC)n1 (centres unmarked) [Example 70, 5-(5-Chloro-1-methyl-2-oxo-1,2-dihydro-pyridin-3-yl)-6-(4-chloro-phenyl)-2-(2,4-dimethoxy-pyrimidin-5-yl)-1-isopropyl-5,6-dihydro-1H-pyrrolo[3,4-b]pyrrol-4-one] | 235
